The values below come from publication PMC9841533, “Microtubule-Stabilizing 1,2,4-Triazolo[1,5-a]pyrimidines as Candidate Therapeutics for Neurodegenerative Disease: Matched Molecular Pair Analyses and Computational Studies Reveal New Structure–Activity Insights” (Journal of Medicinal Chemistry, 2022).

Assay [1] concerns acetylated α-tubulin (AcTub) levels in QBI293 cells. Nature of the assay: QBI293 cell assay of MT stabilization: acetylated α-tubulin ELISA. The format is cell-based. On the procedure:
(§1) All test compounds were initially screened in the same cell-based (QBI293) assay of MT stabilization used in our previous SAR studies[11],[12] so as to allow direct comparison with literature data. Changes in levels of acetylated α-tubulin (AcTub) and total α-tubulin (α-Tub), relative to vehicle-treated negative control cells, were determined after 4 h of incubation with test compounds at 1 and 10 μM. To account for possible day-to-day differences in the responsiveness of cells to MT-stabilizing treatment, compound-dependent changes in AcTub levels relative to DMSO-treated cells were also normalized to the corresponding changes caused by 100 nM of 5 that was used as a positive control. In addition, docking studies, binding free energy calculations, and in selected cases, molecular dynamic simulations were conducted using an X-ray structure of the vinca and seventh sites (PDB: 5NJH,[10]7CLD[13]). […] For selected compounds, additional studies included testing in the QBI293 cell AcTub assay at additional compound concentrations, and/or evaluation of test compounds for their ability to prevent MT collapse in primary neuron cultures treated with the phosphatase inhibitor, okadaic […] (OA). Finally, cytotoxicity studies in QBI293 and HeLa cells were also conducted for representative examples (Supporting Information).
(§2) Compound-induced changes in acetylated-tubulin and α-tubulin in QBI293 cells or primary mouse or rat neurons were as previously described.[11],[12] […] The plated cells were incubated overnight, after which the medium was aspirated and fresh medium containing vehicle (0.25–0.3% DMSO) or test compound was added. Test compounds were prepared as 4–20 mM stock solutions in 100% DMSO, and these were diluted in culture medium prior to addition to the QBI293 cells. After 4 h incubation, whole-cell extracts were prepared from the QBI293 cells as described[11] and the supernatant fraction from each sample was assessed for protein content by bicinchoninic acid (BCA) assay. The amount of acetyl-tubulin (AcTub) and α-tubulin (αTub) within the cell extract samples was quantified using specific enzyme-linked immunosorbent assays (ELISA), as previously described.[11] Acetyl-tubulin levels were determined in a similar manner in rat or mouse cortical neuron cultures in which embryonic dissociated cortical neurons were plated at 3 × 10^5 cells/well in poly-D-lysine-coated 12-well plates, essentially as previously described.[11] […] Culture homogenates were prepared for the determination of AcTub levels by ELISA as previously described.[11]
In general terms: In an ELISA, binding on a coated surface is turned into a signal by an enzyme label.

In assay [2] the test system is total α-tubulin (α-Tub) levels in QBI293 cells. Nature of the assay: QBI293 cell assay: total α-tubulin ELISA. It is filed as cell-based. Here is the method: as §1, §2
Where [3] appears, read: 4 h, 1 uM compound, read-out: AcTub (1uM).
Setting [4] is: 4 h, 10 uM compound, read-out: AcTub (10 uM).
Setting [5] is: 4 h incubation, 1 μM, read-out: AcTub 1 μM, fold-change compared to vehicle (DMSO)-treated cells.
Where [6] appears, read: 4 h incubation, 10 μM, read-out: AcTub 10 μM, fold-change compared to vehicle (DMSO)-treated cells.
Setting [7] is: 4 h, 1 uM compound, read-out: AlfaTub (1uM).
Where [8] appears, read: 4 h, 10 uM compound, read-out: AlfaTub (10 uM).
The mark [9] stands for this setting: 4 h incubation, 1 μM, read-out: α-Tub 1 μM, fold-change compared to vehicle (DMSO)-treated cells.
The mark [10] stands for this setting: 4 h incubation, 10 μM, read-out: α-Tub 10 μM, fold-change compared to vehicle (DMSO)-treated cells.

Structures are written as SMILES. Where a name gives a salt, the structure may show the parent alone. Read-outs that look alike come from different tables or passages of the source.

`CC1(CNc2c(-c3c(F)cc(F)cc3F)c(Cl)nc3ncnn23)CC1` [Compound 13, 5-Chloro-N-((1-methylcyclopropyl)methyl)-6-(2,4,6-trifluorophenyl)-[1,2,4]triazolo[1,5-a]pyrimidin-7-amine]: the “AcTub (1 uM - normalized)” value in assay [1] (1 uM compound) was found to be 0.26. Also, in assay [1] (10 uM compound), the “AcTub (10 uM - normalized)” value is given as 0.49. The fold induction at 1 µM came out at 2.68 in assay [1] (setting [3]), 2.68 ± 0.24 in assay [1] (setting [5]), 1.04 in assay [2] (setting [7]) and 1.04 ± 0.07 in assay [2] (setting [9]). For the same molecule, the fold induction at 10 µM was found to be 5.06 in assay [1] (setting [4]), 5.06 ± 0.23 in assay [1] (setting [6]), 0.97 in assay [2] (setting [8]) and 0.97 ± 0.02 in assay [2] (setting [10]). Also, the “AcTub 1 μM, fold-change compared to positive control compound 5 (100 nM) (in parentheses)” value (from here on “AcTub 1 μM, fold-change”) in assay [1] (4 h incubation, 1 μM) is 0.26 fold-change. Moreover, in assay [1] (4 h incubation, 10 μM), the “AcTub 10 μM, fold-change compared to positive control compound 5 (100 nM) (in parentheses)” value (“AcTub 10 μM, fold-change” for short) turned out to be 0.49 fold-change.

As to `Fc1cc(F)c(-c2c(Cl)nc3ncnn3c2NCC2(C(F)(F)F)CC2)c(F)c1` [Compound 14, 5-Chloro-N-((1-(trifluoromethyl)cyclopropyl)methyl)-6-(2,4,6-trifluorophenyl)-[1,2,4]triazolo[1,5-a]pyrimidin-7-amine], in assay [1] (1 uM compound), the “AcTub (1 uM - normalized)” value is 0.22. Moreover, the “AcTub (10 uM - normalized)” value in assay [1] (10 uM compound) amounted to 0.34. Besides, the fold induction at 1 µM was 1.3 in assay [1] (setting [3]), 1.3 ± 0.09 in assay [1] (setting [5]), 1 in assay [2] (setting [7]) and 1 ± 0.04 in assay [2] (setting [9]). Further, the fold induction at 10 µM in assay [1] (setting [4]) is 2; in assay [1] (setting [6]), 2 ± 0.36; in assay [2] (setting [8]) it was 0.97; in assay [2] (setting [10]), 0.97 ± 0.09. Moreover, the “AcTub 1 μM, fold-change” value in assay [1] (4 h incubation, 1 μM) is given as 0.22 fold-change. In addition, in assay [1] (4 h incubation, 10 μM), the “AcTub 10 μM, fold-change” value is on record as 0.34 fold-change.

With `Fc1cc(F)c(-c2c(Cl)nc3ncnn3c2NCC2CCC2)c(F)c1` [Compound 15, 5-Chloro-N-(cyclobutylmethyl)-6-(2,4,6-trifluorophenyl)-[1,2,4]triazolo[1,5-a]pyrimidin-7-amine], in assay [1] (1 uM compound), the “AcTub (1 uM - normalized)” value is reported as 0.22. Further, the “AcTub (10 uM - normalized)” value in assay [1] (10 uM compound) came to 0.44. Moreover, the fold induction at 1 µM in assay [1] (setting [3]) stood at 1.55; in assay [1] (setting [5]) it was 1.55 ± 0.03; in assay [2] (setting [7]), 1.07; in assay [2] (setting [9]), 1.07 ± 0.01. Moreover, the fold induction at 10 µM in assay [1] (setting [4]) is 3.08; in assay [1] (setting [6]), 3.08 ± 0.03; in assay [2] (setting [8]), 0.96; in assay [2] (setting [10]), 0.96 ± 0.03. The “AcTub 1 μM, fold-change” value in assay [1] (4 h incubation, 1 μM) was 0.22 fold-change. The “AcTub 10 μM, fold-change” value in assay [1] (4 h incubation, 10 μM) stood at 0.44 fold-change.

For the molecule `C[C@H](Nc1c(-c2c(F)cc(F)cc2F)c(Cl)nc2ncnn12)C1CC1` [Compound 16, (S)-5-Chloro-N-(1-cyclopropylethyl)-6-(2,4,6-trifluorophenyl)-[1,2,4]triazolo[1,5-a]pyrimidin-7-amine], the “AcTub (1 uM - normalized)” value in assay [1] (1 uM compound) stood at 0.10. Besides, the “AcTub (10 uM - normalized)” value in assay [1] (10 uM compound) is 0.15. In addition, the fold induction at 1 µM in assay [1] (setting [3]) amounted to 0.96; in assay [1] (setting [5]) it was 0.96 ± 0.06; in assay [2] (setting [7]) it was 0.95; in assay [2] (setting [9]) it was 0.95 ± 0.02. The fold induction at 10 µM was 1.56 in assay [1] (setting [4]), 1.56 ± 0.06 in assay [1] (setting [6]), 0.97 in assay [2] (setting [8]) and 0.97 ± 0.02 in assay [2] (setting [10]). The “AcTub 1 μM, fold-change” value in assay [1] (4 h incubation, 1 μM) is given as 0.10 fold-change. For the same molecule, the “AcTub 10 μM, fold-change” value in assay [1] (4 h incubation, 10 μM) was 0.15 fold-change.

For `C[C@@H](Nc1c(-c2c(F)cc(F)cc2F)c(Cl)nc2ncnn12)C1CC1` [Compound 17, (R)-5-Chloro-N-(1-cyclopropylethyl)-6-(2,4,6-trifluorophenyl)-[1,2,4]triazolo[1,5-a]pyrimidin-7-amine], the “AcTub (1 uM - normalized)” value in assay [1] (1 uM compound) stood at 0.19. Also, in assay [1] (10 uM compound), the “AcTub (10 uM - normalized)” value amounted to 0.4. The fold induction at 1 µM in assay [1] (setting [3]) came out at 1.95; in assay [1] (setting [5]) it was 1.95 ± 0.18; in assay [2] (setting [7]) it was 1.06; in assay [2] (setting [9]), 1.06 ± 0.07. Besides, the fold induction at 10 µM in assay [1] (setting [4]) came to 3.99; in assay [1] (setting [6]), 3.99 ± 0.1; in assay [2] (setting [8]), 1.16; in assay [2] (setting [10]) it was 1.16 ± 0.02. Further, the “AcTub 1 μM, fold-change” value in assay [1] (4 h incubation, 1 μM) turned out to be 0.19 fold-change. Besides, the “AcTub 10 μM, fold-change” value in assay [1] (4 h incubation, 10 μM) amounted to 0.40 fold-change.

Consider `C[C@H](Nc1c(-c2c(F)cc(OCCCCO)cc2F)c(Cl)nc2ncnn12)C(F)(F)F` [Compound 19, (S)-4-(4-(5-Chloro-7-((1,1,1-trifluoropropan-2-yl)amino)-[1,2,4]triazolo[1,5-a]pyrimidin-6-yl)-3,5-difluorophenoxy)butan-1-ol], for which the “AcTub (1 uM - normalized)” value in assay [1] (1 uM compound) is 0.59. Also, the “AcTub (10 uM - normalized)” value in assay [1] (10 uM compound) stood at 0.6. In addition, the fold induction at 1 µM in assay [1] (setting [3]) amounted to 7.3; in assay [1] (setting [5]), 7.3 ± 1.51; in assay [2] (setting [7]), 0.62; in assay [2] (setting [9]) it was 0.62 ± 0.05. In addition, the fold induction at 10 µM in assay [1] (setting [4]) stood at 7.04; in assay [1] (setting [6]), 7.04 ± 0.04; in assay [2] (setting [8]) it was 0.35; in assay [2] (setting [10]), 0.35 ± 0.04. In addition, the “AcTub 1 μM, fold-change” value in assay [1] (4 h incubation, 1 μM) worked out at 0.59 fold-change. Besides, the “AcTub 10 μM, fold-change” value in assay [1] (4 h incubation, 10 μM) amounted to 0.6 fold-change.

For `C[C@H](Nc1c(-c2c(F)cc(OCCCCCO)cc2F)c(Cl)nc2ncnn12)C(F)(F)F` [Compound 20, (S)-5-(4-(5-Chloro-7-((1,1,1-trifluoropropan-2-yl)amino)-[1,2,4]triazolo[1,5-a]pyrimidin-6-yl)-3,5-difluorophenoxy)pentan-1-ol], in assay [1] (1 uM compound), the “AcTub (1 uM - normalized)” value amounted to 0.50. Further, in assay [1] (10 uM compound), the “AcTub (10 uM - normalized)” value was 0.96. The fold induction at 1 µM was determined as 3.73 in assay [1] (setting [3]), 3.73 ± 0.22 in assay [1] (setting [5]), 0.37 in assay [2] (setting [7]) and 0.43 ± 0.07 in assay [2] (setting [9]). In addition, the fold induction at 10 µM was determined as 7.12 in assay [1] (setting [4]), 7.12 ± 0.29 in assay [1] (setting [6]), 0.28 in assay [2] (setting [8]) and 0.36 ± 0.03 in assay [2] (setting [10]). In assay [1] (4 h incubation, 1 μM), the “AcTub 1 μM, fold-change” value is 0.50 fold-change. In assay [1] (4 h incubation, 10 μM), the “AcTub 10 μM, fold-change” value worked out at 0.96 fold-change.

Consider `C[C@@H](Nc1c(-c2c(F)cc(OCCCN(C)C)cc2F)c(Cl)nc2ncnn12)C(C)(C)C` [Compound 24, (R)-3-(4-(5-Chloro-7-((3,3-dimethylbutan-2-yl)amino)-[1,2,4]triazolo[1,5-a]pyrimidin-6-yl)-3,5-difluorophenoxy)-N,N-dimethylpropan-1-aminium Formate], for which the “cellular AcTub at higher (30 μM) concentration” value in assay [1] (4 h, 30 μM) was “further concentration-dependent decrease in cellular AcTub”. Besides, the “total α-Tub at higher (30 μM) concentration” value in assay [2] (4 h, 30 μM) is recorded as “without a reduction of total α-Tub”.

As to `CN(C)CCCOc1cc(F)c(-c2c(Cl)nc3ncnn3c2NCC(C)(C)C)c(F)c1` [Compound 26, 5-Chloro-6-(4-(3-(dimethylamino)propoxy)-2,6-difluorophenyl)-N-neopentyl-[1,2,4]triazolo[1,5-a]pyrimidin-7-amine], in assay [1] (1 uM compound), the “AcTub (1 uM - normalized)” value is given as 1.12. In assay [1] (10 uM compound), the “AcTub (10 uM - normalized)” value was 0.1. Further, the fold induction at 1 µM in assay [1] (setting [3]) was found to be 5.98; in assay [1] (setting [5]) it was 5.98 ± 0.11; in assay [2] (setting [7]), 0.67; in assay [2] (setting [9]), 0.69 ± 0.03. Further, the fold induction at 10 µM is 0.52 in assay [1] (setting [4]), 0.52 ± 0.07 in assay [1] (setting [6]), 0.73 in assay [2] (setting [8]) and 0.73 ± 0.07 in assay [2] (setting [10]). Further, the “AcTub 1 μM, fold-change” value in assay [1] (4 h incubation, 1 μM) turned out to be 1.12 fold-change. Besides, in assay [1] (4 h incubation, 10 μM), the “AcTub 10 μM, fold-change” value was 0.10 fold-change.
